The subject of experiment [1] is γδ T cells. The experiment is described as follows: Expansion of γδ T cell population using pamidronate in Yssel's medium (Example 4). It is filed as cell-based. The note with it: human PBMCs, stimulant pamidronate 5 μM, IL-2 100 U/mL, immobilized FN fragment, day 14. The method, then:
The expansion of a γδ T cell population was carried out in the same manner as in Example 2-(1), provided that as a basal medium for culture, a medium prepared originally by the applicant having the same composition as an Yssel's medium (hereinafter referred to as “Yssel's medium”) was used in place of IMDM, and that on the fifth day from the initiation of culture, 1 mL of an Yssel's medium containing 10% (v/v) human AB serum was added to each well, to dilute the cell suspension.
The ratio of γδ T cells was analyzed according to flow cytometry for PBMCs prepared in Example 1-(1) and the cells on the fourteenth day from the initiation of culture prepared in Example 4-(1), in the same manner as in Example 1-(4). As a result, the ratio of the γδ T cells was 8.9% for the PBMCs, and the ratio was from 89.7 to 94.3% for the cells on the fourteenth day from the initiation of culture.
The number of live cells was counted according to trypan blue staining method for the cells on the fourteenth day from the initiation of culture prepared in Example 4-(1). The expansion fold of γδ T cells was calculated in comparison of the counted number with the number of γδ T cells at the initiation of culture, in the same manner as in Example 1-(5).

Experiment [2] relates to γδ T cells. Kind of experiment: Expansion of γδ T cell population cultured using pamidronate (Example 2). The format is cell-based. The note with it: human PBMCs; IMDM; stimulant pamidronate 5 μM; IL-2 100 U/mL; immobilized FN fragment; day 14. The method, then:
PBMCs prepared in Example 1-(1) were suspended in IMDM containing 0.25% (w/v) HSA, so as to have a concentration of 2×10^6 cells/mL, to prepare a cell suspension. Thereafter, the above-mentioned cell suspension was added to a plate to which nothing was immobilized or a plate immobilized with H296-H296, prepared in Example 1-(2), in a volume of 1 mL/well each. Pamidronate was added to each well so as to have a final concentration of 5 μM. These plates were incubated at 37° C. in 5% CO2 (zeroth day of culture). On the second day from the initiation of culture, IL-2 was added to each well so as to have a final concentration of 100 U/mL. […]
The ratio of γδ T cells was analyzed according to flow cytometry for PBMCs prepared in Example 1-(1) and the cells on the fourteenth day from the initiation of culture prepared in Example 2-(1), in the same manner as in Example 1-(4). […]
The number of live cells was counted according to trypan blue staining method for the cells on the fourteenth day from the initiation of culture prepared in Example 2-(1). The expansion fold of γδ T cells was calculated in comparison of the counted number with the number of γδ T cells at the initiation of culture, in the same manner as in Example 1-(5).

Consider “CH-296: polypeptide comprising a cell binding domain, a heparin binding domain and a CS-1 domain of fibronectin (SEQ ID NO: 13)”, for which the “Expansion Fold of γδ T Cells (Folds) Fourteenth Day of Culture” value in experiment [1] is reported as “×101.4 Folds”.

B1: H296-H296: modified fibronectin fragment in which two H-296's are connected to each other (SEQ ID NO: 22) (protein)
chain: AIPAPTDLKFTQVTPTSLSAQWTPPNVQLTGYRVRVTPKEKTGPMKEINLAPDSSSVVVSGLMVATKYEVSVYALKDTLTSRPAQGVVTTLENVSPPRRARVTDATETTITISWRTKTETITGFQVDAVPANGQTPIQRTIKPDVRSYTITGLQPGTDYKIYLYTLNDNARSSPVVIDASTAIDAPSNLRFLATTPNSLLVSWQPPRARITGYIIKYEKPGSPPREVVPRPRPGVTEATITGLEPGTEYTIYVIALKNNQKSEPLIGRKKTDELPQLVTLPHPNLHGPEILDVPSTAMAIPAPTDLKFTQVTPTSLSAQWTPPNVQLTGYRVRVTPKEKTGPMKEINLAPDSSSVVVSGLMVATKYEVSVYALKDTLTSRPAQGVVTTLENVSPPRRARVTDATETTITISWRTKTETITGFQVDAVPANGQTPIQRTIKPDVRSYTITGLQPGTDYKIYLYTLNDNARSSPVVIDASTAIDAPSNLRFLATTPNSLLVSWQPPRARITGYIIKYEKPGSPPREVVPRPRPGVTEATITGLEPGTEYTIYVIALKNNQKSEPLIGRKKTDELPQLVTLPHPNLHGPEILDVPST
modifications: Fibronectin fragment named H296-H296
For B1, the “Expansion Fold of γδ T Cells (Folds) Fourteenth Day of Culture” value in experiment [2] was “×101.8 Folds”.
